Earlier results in patent US8318912B2, “Targeted immune conjugate comprising an antibody to glycophorin A and a M2e peptide” (priority 2006, dated 2012).

Molecular target: vitamin B12-binding protein
Settings: alternative docking pair to biotin-avidin; read-out: Kd of vitamin B12 bound by vitamin B12-binding protein

Substance: cyanocobalamin [vitamin B12]
- Kd: 0.1 nM
